Results taken from patent publication US12606548B2, “Fungicidal oxadiazoles” (FMC CORPORATION, priority 2019, dated 2026).

What was measured:
[1] = test system: Phakopsora pachyrhizi; assay: Test A: test suspension sprayed on soybean seedlings, inoculated next day with Phakopsora pachyrhizi (Asian soybean rust), visual disease rating; type: in vivo; conditions: relative to the controls
Description: General protocol for preparing test suspensions for Tests A-C: the test compounds were first dissolved in acetone in an amount equal to 3% of the final volume and then suspended at the desired concentration (in ppm) in acetone and purified water (50/50 mix by volume) containing 250 ppm of the surfactant PEG400 (polyhydric alcohol esters). The resulting test suspensions were then used in Tests A-C. The test suspension was sprayed to the point of run-off on soybean seedlings. The following day the seedlings were inoculated with a spore suspension of Phakopsora pachyrhizi (the causal agent of Asian soybean rust) and incubated in a saturated atmosphere at 22° C., for 24 h and then moved to a growth chamber at 22° C., for 8 days, after which time visual disease ratings were made. […] A dash (-) indicates the compound was not tested. The test suspensions were sprayed at the concentration listed in the column “Rate in ppm”, unless otherwise indicated.

[2] = test system: Puccinia recondita f. sp. tritici; assay: Test C: test suspension sprayed on wheat seedlings, inoculated next day with Puccinia recondita f. sp. tritici (wheat leaf rust), visual disease rating; type: in vivo; conditions: relative to the controls
Description: General protocol for preparing test suspensions for Tests A-C: the test compounds were first dissolved in acetone in an amount equal to 3% of the final volume and then suspended at the desired concentration (in ppm) in acetone and purified water (50/50 mix by volume) containing 250 ppm of the surfactant PEG400 (polyhydric alcohol esters). The resulting test suspensions were then used in Tests A-C. The test suspension was sprayed to the point of run-off on wheat seedlings. The following day the seedlings were inoculated with a spore suspension of Puccinia recondita f. sp. tritici; (the causal agent of wheat leaf rust) and incubated in a saturated atmosphere at 20° C., for 24 h, and then moved to a growth chamber at 20° C., for 6 days, after which time visual disease ratings were made. […] A dash (-) indicates the compound was not tested. The test suspensions were sprayed at the concentration listed in the column “Rate in ppm”, unless otherwise indicated.

Row | SMILES | Test A rating (% disease control) ([1]; Rate 10 ppm test suspension) [%] | Test C rating (% disease control) ([2]; Rate 10 ppm test suspension) [%] | Test A rating (% disease control) ([1]; Rate 50 ppm test suspension) [%] | Test C rating (% disease control) ([2]; Rate 50 ppm test suspension) [%]
1 | COC(=O)c1nccn(Cc2ccc(-c3noc(C(F)(F)F)n3)cc2)c1=O [compound 423] | 86 | 80 |  | 
2 | CCOC(=O)c1cnn(Cc2ccc(-c3noc(C(F)(F)F)n3)cn2)c1 [compound 424] | 100 | 96 |  | 
3 | COC(=O)c1cnn(CCCc2ccc(-c3noc(C(F)(F)F)n3)cc2)c1 [compound 427] |  |  | 100 | 67
4 | CCOC(=O)c1cnn(CCCc2ccc(-c3noc(C(F)(F)F)n3)cc2)c1 [compound 428] |  |  | 100 | 100
5 | CCOC(=O)C1(Cc2ccc(-c3noc(C(F)(F)F)n3)cc2)CCNC1=O (stereo not shown) [compound 431] |  |  | 99 | 98
6 | CCOC(=O)C1(Cc2ccc(-c3noc(C(F)(F)F)n3)cc2)CCCNC1=O (stereo not shown) [compound 432] |  |  | 100 | 92
7 | FC(F)(F)c1nc(-c2ccc(Cn3cc4cnc(Cl)nc4n3)cc2)no1 [compound 433] | 100 | 99 |  | 
8 | CSCC(=O)COC(=O)c1cnn(Cc2ccc(-c3noc(C(F)(F)F)n3)cc2)c1 [compound 434] | 100 | 98 |  | 
9 | N#Cc1cnn(CCCc2ccc(-c3noc(C(F)(F)F)n3)cc2)c1 [compound 435] | 100 | 74 |  | 
10 | COC(=O)c1cnn(CCCc2ccc(-c3noc(C(F)(F)F)n3)cc2)c1 [compound 436] | 100 | 74 |  | 
11 | CCOC(=O)c1cnn(CCCc2ccc(-c3noc(C(F)(F)F)n3)cc2)c1 [compound 437] | 100 | 86 |  | 
12 | CCCOC(=O)c1cnn(Cc2cc(OC)c(-c3noc(C(F)(F)F)n3)s2)c1 [compound 439] | 0 | 0 |  | 
13 | C=CCOC(=O)c1cnn(Cc2cc(OC)c(-c3noc(C(F)(F)F)n3)s2)c1 [compound 440] | 0 | 0 |  | 
14 | CC(=O)Nc1cnn(Cc2ccc(-c3noc(C(F)(F)F)n3)cc2)c1 [compound 441] | 87 | 9 |  | 
15 | CS(=O)(=O)Nc1cnn(Cc2ccc(-c3noc(C(F)(F)F)n3)cc2)c1 [compound 442] | 44 | 0 |  | 
16 | CCOC(=O)Nc1cnn(Cc2ccc(-c3noc(C(F)(F)F)n3)cc2)c1 [compound 443] | 100 | 74 |  | 
17 | FC(F)(F)c1nc(-c2ccc(Cn3ncc4c(I)ccnc43)cc2)no1 [compound 444] | 96 | 86 |  | 
18 | FC(F)(F)c1nc(-c2ccc(Cn3cc4c(I)ccnc4n3)cc2)no1 [compound 445] | 100 | 99 |  | 
19 | Nc1nn(Cc2ccc(-c3noc(C(F)(F)F)n3)cc2)c2ncccc12 [compound 446] | 99 | 86 |  | 

Row | SMILES | Test A rating (% disease control) ([1]; Rate 10 ppm test suspension) [%] | Test C rating (% disease control) ([2]; Rate 10 ppm test suspension) [%] | Test A rating (% disease control) ([1]; Rate 50 ppm test suspension) [%] | Test C rating (% disease control) ([2]; Rate 50 ppm test suspension) [%]
20 | CCCCCOC(=O)c1cnn(Cc2ccc(-c3noc(C(F)(F)F)n3)cc2)c1 [compound 447] | 100 | 100 |  | 
21 | O=C(OCCCCl)c1cnn(Cc2ccc(-c3noc(C(F)(F)F)n3)cc2)c1 [compound 448] | 100 | 100 |  | 
22 | O=C(NCC(F)(F)F)c1cnn(Cc2ccc(-c3noc(C(F)(F)F)n3)cc2)c1 [compound 449] | 100 | 100 |  | 
23 | CCOC(=O)c1cnn(Cc2ccc3cc(-c4noc(C(F)(F)F)n4)ccc3c2)c1 [compound 457] |  |  | 77 | 0
24 | O=C1N(Cc2ccc(-c3noc(C(F)(F)F)n3)cc2)CCc2cncn21 [compound 462] | 100 | 89 |  | 
25 | COCCCOC(=O)c1cnn(Cc2ccc(-c3noc(C(F)(F)F)n3)cc2)c1 [compound 474] | 100 | 100 |  | 
26 | O=C(OCCN1CCOCC1)c1cnn(Cc2ccc(-c3noc(C(F)(F)F)n3)cc2)c1 [compound 475] | 100 | 91 |  | 
27 | CCOC(=O)COC(=O)c1cnn(Cc2ccc(-c3noc(C(F)(F)F)n3)cc2)c1 [compound 476] | 100 | 86 |  | 
28 | O=C(OCCCl)c1cnn(Cc2ccc(-c3noc(C(F)(F)F)n3)cc2)c1 [compound 477] | 100 | 100 |  | 
29 | O=C(OCCBr)c1cnn(Cc2ccc(-c3noc(C(F)(F)F)n3)cc2)c1 [compound 478] |  |  | 81 | 19
30 | O=C(OCc1ccccn1)c1cnn(Cc2ccc(-c3noc(C(F)(F)F)n3)cc2)c1 [compound 479] | 100 | 100 |  | 
31 | CC(C)CCOC(=O)c1cnn(Cc2ccc(-c3noc(C(F)(F)F)n3)cc2)c1 [compound 480] | 100 | 98 |  | 
32 | CCC(C)OC(=O)c1cnn(Cc2ccc(-c3noc(C(F)(F)F)n3)cc2)c1 (stereo not shown) [compound 481] | 100 | 100 |  | 
33 | C=C(Cl)COC(=O)c1cnn(Cc2ccc(-c3noc(C(F)(F)F)n3)cc2)c1 [compound 482] | 100 | 100 |  | 
34 | O=C(NCc1cccnc1)c1cnn(Cc2ccc(-c3noc(C(F)(F)F)n3)cc2)c1 [compound 483] | 100 | 54 |  | 
35 | O=C(NCc1ccccc1)c1cnn(Cc2ccc(-c3noc(C(F)(F)F)n3)cc2)c1 [compound 484] | 100 | 100 |  | 
36 | O=C(Nc1ccccc1)c1cnn(Cc2ccc(-c3noc(C(F)(F)F)n3)cc2)c1 [compound 485] | 100 | 99 |  | 
37 | C=C(C#N)COC(=O)c1cnn(Cc2ccc(-c3noc(C(F)(F)F)n3)cc2)c1 [compound 486] | 100 | 89 |  | 
38 | Cc1ccc(C(O)c2ccc(-c3noc(C(F)(F)F)n3)cc2)cc1 (stereo not shown) [compound 501] | 100 | 0 |  | 
